Eleven compounds from paper PMC6271425, “Synthesis and Sar Study of Diarylpentanoid Analogues as New Anti-Inflammatory Agents” (Molecules, 2014) can be followed below.

Some results are limits rather than exact numbers.

The subject of one data set is NO production in IFN-γ/LPS-stimulated RAW 264.7 macrophages. Briefly: NO suppression (Griess nitrite determination) in IFN-γ/LPS-stimulated RAW 264.7 macrophages. The conditions noted are these: 50 µM test concentration; IFN-γ/LPS-stimulated RAW 264.7 cells; 50 µM. It counts as cell-based, murine. As to the method: The synthesized compounds were screened for NO suppression activity in IFN-γ/LPS-stimulated RAW 264.7 macrophages at a 50 µM test concentration. […] The IC50 values of the fifty-seven bioactive compounds were determined and compared to that of the positive control, curcumin. An MTT assay was also carried out to confirm that NO inhibition was not due to cytotoxicity. […] The complete bioassay results of all the compounds are provided as Table S2 in Supplementary Data. RAW 264.7 murine macrophages cells obtained from American Type Culture Collection (ATCC, Rockville, MD, USA) were grown in Dulbecco’s Modified Eagle’s Medium (DMEM) containing 10% fetal bovine serum (FBS) and 1% penicillin/streptomycin in a 95% air and 5% CO2 atmosphere at 37 °C. RAW 264.7 cells at 90%–95% confluency were detached and seeded (50,000 cells/well) into a 96-well culture plate with 50 μL of DMEM and incubated for 24 h. The cells were then stimulated in […] of LPS (Escherichia coli, serotype 0111:B4) and 1 ng/ml of interferon-gamma (IFN-γ) in the presence or absence of test compounds for 17 h. Nitrite concentration was then determined by Griess assay by reacting 50 μL of cell culture supernatant with 50 μL of Griess reagent (1% sulfanilamide and 0.1% N-(1-naphthyl)ethylenediamine dihydrochloride in 2.5% phosphoric acid) at room temperature. The optical density was measured at 550 nm after 5 min of incubation at room temperature with a microplate reader.
As to `COc1ccc(O)c(C(=O)/C=C(O)/C=C/c2ccc(OC)c(OC)c2)c1` [Compound 63], the “NO Inhibition at 50 µM (%) ± S.E.M” value turned out to be 92.2 ± 0.8%.
As to `COc1ccc(O)c(C(=O)/C=C(O)/C=C/c2cc(OC)c(OC)c(OC)c2)c1` [Compound 64], the “NO Inhibition at 50 µM (%) ± S.E.M” value was 95.2 ± 1.1%.
Same read-out and setting: under `COc1ccc(O)c(C(=O)/C=C(O)/C=C/c2ccco2)c1` [Compound 67] stands 72.1 ± 3.1%.
Turning to `COc1ccc(/C=C/C(O)=C/C(=O)c2cc(OC)ccc2O)c(OC)c1` [Compound 68], the “NO Inhibition at 50 µM (%) ± S.E.M” value is 79.5 ± 4.7%.
In the case of `COc1ccc(O)c(C(=O)/C=C(O)/C=C/c2cccs2)c1` [Compound 71], the “NO Inhibition at 50 µM (%) ± S.E.M” value came out at 85.0 ± 2.7%.
As for `O=C(/C=C(O)/C=C/c1ccccc1O)c1ccccc1O` [Compound 79], the “NO Inhibition at 50 µM (%) ± S.E.M” value is recorded as 95.5 ± 0.6%.
For `O=C(/C=C(O)/C=C/c1cccc(O)c1)c1ccccc1O` [Compound 80], the “NO Inhibition at 50 µM (%) ± S.E.M” value turned out to be 97.2 ± 0.7%.
Still for that read-out and setting: with `O=C(/C=C(O)/C=C/c1cccs1)c1ccc(O)cc1O` [Compound 95] the figure was 60.4 ± 2.0%.

Staying with this data set, now noted: IFN-γ/LPS-stimulated RAW 264.7 cells; read-out: NO Inhibition IC50 (µM) ± S.E.M.
As to `COc1ccc(O)c(C(=O)/C=C(O)/C=C/c2ccc(OC)c(OC)c2)c1` [Compound 63], the IC50 is below 20 µM.
Same read-out and setting: under `COc1ccc(O)c(C(=O)/C=C(O)/C=C/c2cc(OC)c(OC)c(OC)c2)c1` [Compound 64] stands below 20 µM.

The same data set, now with this note: Mus musculus, RAW264.7, 50 µM test concentration; IFN-γ/LPS-stimulated RAW 264.7 cells; read-out: NO Inhibition at 50 µM (%) ± S.E.M.
On to `O=C(/C=C(O)/C=C/c1ccc(Cl)s1)c1ccccc1O` [Compound 17], for which the inhibition at 50 µM was 63.8 ± 2.6%.
Turning to `O=C(/C=C(O)/C=C/c1ccccc1)c1cc(Br)ccc1O` [Compound 41], the inhibition at 50 µM was 79.9 ± 8.7%.
Consider `COc1ccc(C(=O)/C=C(O)/C=C/c2ccccc2)c(O)c1` [Compound 45], for which the inhibition at 50 µM stood at 87.9 ± 5.1%.
Turning to `COc1ccc(O)c(C(=O)/C=C(O)/C=C/c2ccc(OC)c(OC)c2)c1` [Compound 63], the inhibition at 50 µM worked out at 92.19 ± 0.77%.
With `COc1ccc(O)c(C(=O)/C=C(O)/C=C/c2cc(OC)c(OC)c(OC)c2)c1` [Compound 64], the inhibition at 50 µM is 95.2 ± 1.09%.
Consider `COc1ccc(O)c(C(=O)/C=C(O)/C=C/c2ccco2)c1` [Compound 67], for which the inhibition at 50 µM amounted to 72.1 ± 3.07%.
For `COc1ccc(/C=C/C(O)=C/C(=O)c2cc(OC)ccc2O)c(OC)c1` [Compound 68], the inhibition at 50 µM came to 79.5 ± 4.71%.
Regarding `COc1ccc(O)c(C(=O)/C=C(O)/C=C/c2cccs2)c1` [Compound 71], the inhibition at 50 µM was 85 ± 2.66%.
Consider `O=C(/C=C(O)/C=C/c1ccccc1O)c1ccccc1O` [Compound 79], for which the inhibition at 50 µM worked out at 95.46 ± 0.59%.
For `O=C(/C=C(O)/C=C/c1cccc(O)c1)c1ccccc1O` [Compound 80], the inhibition at 50 µM was 97.22 ± 0.69%.
On to `O=C(/C=C(O)/C=C/c1cccs1)c1ccc(O)cc1O` [Compound 95], for which the inhibition at 50 µM was 60.4 ± 2.04%.

The same data set, now with this note: Mus musculus, RAW264.7, IFN-γ/LPS-stimulated RAW 264.7 cells; read-out: NO Inhibition IC50 (µM) ± S.E.M.
Take `O=C(/C=C(O)/C=C/c1ccc(Cl)s1)c1ccccc1O` [Compound 17]: the IC50 was 36.4 ± 1.8 µM.
As to `O=C(/C=C(O)/C=C/c1ccccc1)c1cc(Br)ccc1O` [Compound 41], the IC50 came to 20.8 ± 0.54 µM.
Regarding `COc1ccc(C(=O)/C=C(O)/C=C/c2ccccc2)c(O)c1` [Compound 45], the IC50 was 29.5 ± 0.469 µM.
For `COc1ccc(O)c(C(=O)/C=C(O)/C=C/c2ccc(OC)c(OC)c2)c1` [Compound 63], the IC50 was 19.8 ± 0.365 µM.
Consider `COc1ccc(O)c(C(=O)/C=C(O)/C=C/c2cc(OC)c(OC)c(OC)c2)c1` [Compound 64], for which the IC50 came to 18.4 ± 0.246 µM.
As to `COc1ccc(O)c(C(=O)/C=C(O)/C=C/c2ccco2)c1` [Compound 67], the IC50 came out at 71.5 ± 2.5 µM.
`COc1ccc(/C=C/C(O)=C/C(=O)c2cc(OC)ccc2O)c(OC)c1` [Compound 68]: the IC50 was 33.4 ± 0.695 µM.
As to `COc1ccc(O)c(C(=O)/C=C(O)/C=C/c2cccs2)c1` [Compound 71], the IC50 worked out at 35.6 ± 0.621 µM.
`O=C(/C=C(O)/C=C/c1ccccc1O)c1ccccc1O` [Compound 79]: the IC50 came out at 28.9 ± 1.5 µM.
For the compound `O=C(/C=C(O)/C=C/c1cccc(O)c1)c1ccccc1O` [Compound 80], the IC50 stood at 30.8 ± 0.722 µM.
As for `O=C(/C=C(O)/C=C/c1cccs1)c1ccc(O)cc1O` [Compound 95], the IC50 stood at 44.8 ± 1.57 µM.

The data set is the same for the next values; noted with them: Mus musculus, RAW264.7, Table 6, NO suppression IC50 used for QSAR; unit inferred; read-out: IC50.
As to `O=C(/C=C(O)/C=C/c1ccc(Cl)s1)c1ccccc1O` [Compound 17], the IC50 stood at 36.4 ± 1.8 µM.
`O=C(/C=C(O)/C=C/c1ccccc1)c1cc(Br)ccc1O` [Compound 41]: the IC50 was 20.8 ± 0.5 µM.
For `COc1ccc(C(=O)/C=C(O)/C=C/c2ccccc2)c(O)c1` [Compound 45], the IC50 was determined as 29.5 ± 0.5 µM.
Still for that read-out and setting: under `COc1ccc(O)c(C(=O)/C=C(O)/C=C/c2ccc(OC)c(OC)c2)c1` [Compound 63] stands 19.8 ± 0.4 µM; under `COc1ccc(O)c(C(=O)/C=C(O)/C=C/c2cc(OC)c(OC)c(OC)c2)c1` [Compound 64], 18.4 ± 0.2 µM.
Consider `COc1ccc(O)c(C(=O)/C=C(O)/C=C/c2ccco2)c1` [Compound 67], for which the IC50 is 71.5 ± 2.5 µM.
As for `COc1ccc(/C=C/C(O)=C/C(=O)c2cc(OC)ccc2O)c(OC)c1` [Compound 68], the IC50 was 33.4 ± 0.7 µM.
With `COc1ccc(O)c(C(=O)/C=C(O)/C=C/c2cccs2)c1` [Compound 71], the IC50 amounted to 35.6 ± 0.6 µM.
Still for that read-out and setting: with `O=C(/C=C(O)/C=C/c1ccccc1O)c1ccccc1O` [Compound 79] the figure was 28.9 ± 1.5 µM; with `O=C(/C=C(O)/C=C/c1cccc(O)c1)c1ccccc1O` [Compound 80], 30.8 ± 0.7 µM.
In the case of `O=C(/C=C(O)/C=C/c1cccs1)c1ccc(O)cc1O` [Compound 95], the IC50 was determined as 44.8 ± 1.6 µM.

Still in this data set, the particulars now being: Mus musculus, RAW264.7, −log IC50 of NO suppression; read-out: pIC50 (converted).
On to `O=C(/C=C(O)/C=C/c1ccc(Cl)s1)c1ccccc1O` [Compound 17], for which the IC50 is 36.3 µM.
Turning to `O=C(/C=C(O)/C=C/c1ccccc1)c1cc(Br)ccc1O` [Compound 41], the IC50 was 20.9 µM.
As for `COc1ccc(C(=O)/C=C(O)/C=C/c2ccccc2)c(O)c1` [Compound 45], the IC50 was 29.5 µM.
On to `COc1ccc(O)c(C(=O)/C=C(O)/C=C/c2ccc(OC)c(OC)c2)c1` [Compound 63], for which the IC50 was 20 µM.
Take `COc1ccc(O)c(C(=O)/C=C(O)/C=C/c2cc(OC)c(OC)c(OC)c2)c1` [Compound 64]: the IC50 is 18.2 µM.
For `COc1ccc(O)c(C(=O)/C=C(O)/C=C/c2ccco2)c1` [Compound 67], the IC50 was 70.8 µM.
As to `COc1ccc(/C=C/C(O)=C/C(=O)c2cc(OC)ccc2O)c(OC)c1` [Compound 68], the IC50 was 33.1 µM.
As for `COc1ccc(O)c(C(=O)/C=C(O)/C=C/c2cccs2)c1` [Compound 71], the IC50 was 35.5 µM.
With `O=C(/C=C(O)/C=C/c1ccccc1O)c1ccccc1O` [Compound 79], the IC50 is 28.8 µM.
As for `O=C(/C=C(O)/C=C/c1cccc(O)c1)c1ccccc1O` [Compound 80], the IC50 was 30.9 µM.
Still for that read-out and setting: under `O=C(/C=C(O)/C=C/c1cccs1)c1ccc(O)cc1O` [Compound 95] stands 44.7 µM.

System in a further data set: not listed separately
The experiment in a line: Cell cytotoxicity determination (MTT assay). It counts as cell-based, murine. The conditions noted are these: mouse, RAW 264.7 macrophage cells, RAW 264.7 cells, read-out: Cytotoxicity IC50 (µM) ± S.E.M. The procedure: (§1) The synthesized compounds were screened for NO suppression activity in IFN-γ/LPS-stimulated RAW 264.7 macrophages at a 50 µM test concentration. […] The IC50 values of the fifty-seven bioactive compounds were determined and compared to that of the positive control, curcumin. An MTT assay was also carried out to confirm that NO inhibition was not due to cytotoxicity. […] The complete bioassay results of all the compounds are provided as Table S2 in Supplementary Data.
(§2) RAW 264.7 murine macrophages cells obtained from American Type Culture Collection (ATCC, Rockville, MD, USA) were grown in Dulbecco’s Modified Eagle’s Medium (DMEM) containing 10% fetal bovine serum (FBS) and 1% penicillin/streptomycin in a 95% air and 5% CO2 atmosphere at 37 °C.
(§3) Supernatant in each well was removed followed by addition of 100 µL DMEM. Subsequently, 20 µL of 3-(4,5-dimethylthiazol-2-yl)-2,5-diphenyltetrazolium bromide (MTT, 5 mg/mL) was then added and the plate was incubated in a 95% air and 5% CO2 atmosphere at 37 °C for 4 h. The mixture of culture media and MTT in all wells were removed and the purplish formazan crystals formed were dissolved in dimethyl sulfoxide (DMSO) and further incubated for 15 min at room temperature. The color intensity was then measured at 570 nm at room temperature.
On to `O=C(/C=C(O)/C=C/c1ccc(Cl)s1)c1ccccc1O` [Compound 17], for which the IC50 came out at 67.8 ± 2.87 µM.
Consider `O=C(/C=C(O)/C=C/c1ccccc1)c1cc(Br)ccc1O` [Compound 41], for which the IC50 was above 100 µM.
Regarding `COc1ccc(C(=O)/C=C(O)/C=C/c2ccccc2)c(O)c1` [Compound 45], the IC50 is above 100 µM.
Regarding `COc1ccc(O)c(C(=O)/C=C(O)/C=C/c2ccc(OC)c(OC)c2)c1` [Compound 63], the IC50 is above 100 µM.
Take `COc1ccc(O)c(C(=O)/C=C(O)/C=C/c2cc(OC)c(OC)c(OC)c2)c1` [Compound 64]: the IC50 was above 100 µM.
For the compound `COc1ccc(O)c(C(=O)/C=C(O)/C=C/c2ccco2)c1` [Compound 67], the IC50 is above 100 µM.
Take `COc1ccc(/C=C/C(O)=C/C(=O)c2cc(OC)ccc2O)c(OC)c1` [Compound 68]: the IC50 is above 100 µM.
`COc1ccc(O)c(C(=O)/C=C(O)/C=C/c2cccs2)c1` [Compound 71]: the IC50 was above 100 µM.
Still for that read-out and setting: under `O=C(/C=C(O)/C=C/c1ccccc1O)c1ccccc1O` [Compound 79] stands 72.6 ± 2.61 µM.
With `O=C(/C=C(O)/C=C/c1cccc(O)c1)c1ccccc1O` [Compound 80], the IC50 came out at 85 ± 1.44 µM.
Regarding `O=C(/C=C(O)/C=C/c1cccs1)c1ccc(O)cc1O` [Compound 95], the IC50 was above 100 µM.

The test system of another data set is RAW 264.7 cells. Briefly: Cell cytotoxicity determination (MTT assay). It counts as cell-based, murine. The conditions noted are these: read-out: Cytotoxicity IC50 (µM) ± S.E.M. As to the method: as §1, §2, §3
For `O=C(/C=C(O)/C=C/c1ccc(Cl)s1)c1ccccc1O` [Compound 17], the IC50 is 67.9 ± 2.9 µM.
`O=C(/C=C(O)/C=C/c1ccccc1O)c1ccccc1O` [Compound 79]: the IC50 worked out at 56.4 ± 1.2 µM.
As for `O=C(/C=C(O)/C=C/c1cccc(O)c1)c1ccccc1O` [Compound 80], the IC50 amounted to 67.3 ± 0.6 µM.
